Results published in patent US6706663B2, “Herbicidal 3-heterocyclic substituted benzisothiazole and benzisoxazole compounds” (Wyeth, priority 2000, dated 2004).

Tests used:
[1] = tested on: CYPIR (Cyperus iria); assay: Flooded paddy, preemergence weed control; assay type: in vivo; conditions: rated 3-4 weeks after treatment, 0-9 rating scale
Method: (§1) Results of herbicide evaluation are expressed on a rating scale (0-9). The scale is based upon a visual observation of plant stand, vigor, malformation, size, chlorosis and overall plant appearance as compared with a control.
(§2) Preemergence herbicidal activity under flooded paddy conditions is determined as follows: plant seeds or propagating organs are planted in the top 0.5 cm of silt loam soil in 32 oz. plastic containers with a diameter of 10.5 cm and no drainage holes. Water is added to these containers and maintained at 1.5 to 3 cm above the soil surface for the duration of the experiment. […] The treated containers are placed on greenhouse benches and cared for in accordance with conventional greenhouse procedures.

[2] = tested on: IPOHE (Ipomoea hederacea); assay: Preemergence herbicidal evaluation; assay type: in vivo, (L.) Jacq.; conditions: rated 4-5 weeks after treatment
From the text: as §1
(§3) The preemergence herbicidal activity of the test compounds of the present invention is exemplified by the following tests in which the seeds of a variety of monocotyledonous and dicotyledonous plants are separately mixed with potting soil and planted on top of approximately one inch of soil in separate pint cups. […] The treated cups are then placed on greenhouse benches, watered and cared for in accordance with conventional greenhouse procedures. From four to five weeks after treatment, the tests are terminated and each cup is examined and rated according to the rating system provided in Example 87. The plant species used and the compounds evaluated are the same as those shown in Example 87.

[3] = tested on: ABUTH (Abutilon theophrasti); assay: Preemergence herbicidal evaluation; assay type: in vivo, Medic.; conditions: rated 4-5 weeks after treatment
From the text: as §1, §3

[4] = tested on: ECHCG (Echinochloa crus-galli); assay: Preemergence herbicidal evaluation; assay type: in vivo, (L.) Beau; conditions: rated 4-5 weeks after treatment
From the text: as §1, §3

[5] = tested on: SETVI (Setaria viridis); assay: Preemergence herbicidal evaluation; assay type: in vivo, (L.) Beau; conditions: rated 4-5 weeks after treatment
From the text: as §1, §3

[6] = tested on: ECHORC (Echinochloa oryzoides); assay: Flooded paddy, preemergence weed control; assay type: in vivo, Echinochloa oryzoides (Ard.) Fritsch.; conditions: rated 3-4 weeks after treatment, 0-9 rating scale
Method: as §1, §2

[7] = tested on: IPOHE (Ipomoea hederacea); assay: Postemergence herbicidal evaluation; assay type: in vivo, (L.) Jacq.; conditions: postemergence
Method: (§4) In the tests, seedling plants are grown in jiffy flats for about two weeks. […] After spraying, the plants are placed on greenhouse benches and are cared for in accordance with conventional greenhouse procedures. From four to five weeks after treatment, the seedling plants are examined and rated according to the rating system set forth below. Where more than one test is involved for a given compound, the data are averaged.
as §1

[8] = tested on: GALAP (Galium aparine); assay: Preemergence herbicidal evaluation; assay type: in vivo; conditions: rated 4-5 weeks after treatment
From the text: as §1, §3

[9] = tested on: TRZAWR (Wheat, Winter, cv Riband); assay: Preemergence herbicidal evaluation; assay type: in vivo, Triticum aestivum; conditions: rated 4-5 weeks after treatment
From the text: as §1, §3

[10] = tested on: AMBEL (Ambrosia artemisifolia); assay: Preemergence herbicidal evaluation; assay type: in vivo, L.; conditions: rated 4-5 weeks after treatment
From the text: as §1, §3

[11] = tested on: CASOB (Cassia obtusifolia); assay: Preemergence herbicidal evaluation; assay type: in vivo, L.; conditions: rated 4-5 weeks after treatment
From the text: as §1, §3

[12] = tested on: CHEAL (Chenopodium album); assay: Preemergence herbicidal evaluation; assay type: in vivo, L.; conditions: rated 4-5 weeks after treatment
From the text: as §1, §3

[13] = tested on: ZEAMX (Corn, Field); assay: Postemergence herbicidal evaluation; assay type: in vivo, Zea mays, L.; conditions: postemergence
Method: as §4, §1

[14] = tested on: ORYSAT (Rice, Tebonnet); assay: Preemergence herbicidal evaluation; assay type: in vivo, Oryza sativa, (L.) Tebonnet; conditions: rated 4-5 weeks after treatment
From the text: as §1, §3

[15] = tested on: MOOVA (Monochoria vaginalis); assay: Flooded paddy, preemergence weed control; assay type: in vivo, Presl.; conditions: rated 3-4 weeks after treatment, 0-9 rating scale
Method: as §1, §2

[16] = tested on: ECHCG (Echinochloa crus-galli); assay: Postemergence herbicidal evaluation; assay type: in vivo, (L.) Beau; conditions: postemergence
Method: as §4, §1

[17] = tested on: ORYSAT (Rice, Tebonnet); assay: Flooded paddy, post-transplant rice tolerance; assay type: in vivo, Oryza sativa, (L.) Tebonnet; conditions: flooded paddy, post-transplant rice, rated 3-4 weeks after treatment, 0-9 rating scale
Method: as §1
The tolerance of transplanted rice to post-transplanted herbicide application is determined as follows: two ten-day-old rice seedlings (cv. Tebonnet) are transplanted into silt loam soil in 32 oz. plastic containers with a diameter of 10.5 cm and no drainage holes. After transplanting, the containers are flooded and the water level is maintained at 1.5 to 3 cm above the soil surface. […] The treated containers are placed on greenhouse benches, watered such that the water level is maintained as stated above, and cared for in accordance with conventional greenhouse procedures.

[18] = tested on: GLXMAW (Soybean, Williams); assay: Postemergence herbicidal evaluation; assay type: in vivo, Glycine max, (L.) Merr. cv Williams; conditions: postemergence
Method: as §4, §1

[19] = tested on: SETVI (Setaria viridis); assay: Postemergence herbicidal evaluation; assay type: in vivo, (L.) Beau; conditions: postemergence
Method: In the tests, seedling plants are grown in jiffy flats for about two weeks. The test compounds are dispersed in 50/50 acetone/water mixtures containing 0.5% TWEEN® 20, a polyoxyethylene sorbitan monolaurate surfactant of Atlas Chemical Industries, in sufficient quantities to provide the equivalent of about 0.0040 kg to 1.000 kg per hectare of active compound when applied to the plants through a spray nozzle operating at 40 psi for a predetermined time. After spraying, the plants are placed on greenhouse benches and are cared for in accordance with conventional greenhouse procedures. From four to five weeks after treatment, the seedling plants are examined and rated according to the rating system set forth below. Where more than one test is involved for a given compound, the data are averaged.
as §1

[20] = tested on: GLXMAW (Soybean, Williams); assay: Preemergence herbicidal evaluation; assay type: in vivo, Glycine max, (L.) Merr. cv Williams; conditions: rated 4-5 weeks after treatment
From the text: as §1, §3

[21] = tested on: ZEAMX (Corn, Field); assay: Preemergence herbicidal evaluation; assay type: in vivo, Zea mays, L.; conditions: rated 4-5 weeks after treatment
From the text: as §1, §3

[22] = tested on: SAGPY (Sagittaria pygmaea); assay: Flooded paddy, preemergence weed control; assay type: in vivo, L.; conditions: rated 3-4 weeks after treatment, 0-9 rating scale
Method: as §1, §2

[23] = tested on: ORYSAT (Rice, Tebonnet); assay: Postemergence herbicidal evaluation; assay type: in vivo, Oryza sativa, (L.) Tebonnet; conditions: postemergence
Method: as §4, §1

[24] = tested on: TRZAWR (Wheat, Winter, cv Riband); assay: Postemergence herbicidal evaluation; assay type: in vivo, Triticum aestivum; conditions: postemergence
Method: as §4, §1

[25] = tested on: GALAP (Galium aparine); assay: Postemergence herbicidal evaluation; assay type: in vivo; conditions: postemergence
Method: as §4, §1

[26] = tested on: AMBEL (Ambrosia artemisifolia); assay: Postemergence herbicidal evaluation; assay type: in vivo, L.; conditions: postemergence
Method: as §4, §1

[27] = tested on: CASOB (Cassia obtusifolia); assay: Postemergence herbicidal evaluation; assay type: in vivo, L.; conditions: postemergence
Method: as §4, §1

[28] = tested on: CHEAL (Chenopodium album); assay: Postemergence herbicidal evaluation; assay type: in vivo, L.; conditions: postemergence
Method: as §4, §1

[29] = tested on: ABUTH (Abutilon theophrasti); assay: Postemergence herbicidal evaluation; assay type: in vivo, Medic.; conditions: postemergence
Method: as §4, §1

C[C@@H]1OC(c2nsc3cc(F)c(-n4c(=O)cc(C(F)(F)F)n(C)c4=O)cc23)O[C@@H]1C (stereo partly drawn) [Compound 63, 3-[3-[(4R,5S)-4,5-dimethyl-1,3-dioxolan-2-yl]-6-fluoro-1,2-benzisothiazol-5-yl]-1-methyl-6-(trifluoromethyl)uracil]
5.0: ORYSAT herbicidal rating ([23]; rate 0.0320 kg/ha) | TRZAWR herbicidal rating ([24]; rate 0.0320 kg/ha)
6.0: ZEAMX herbicidal rating ([13]; rate 0.0620 kg/ha) | ECHCG herbicidal rating ([16]; rate 0.0320 kg/ha) | ORYSAT herbicidal rating ([23]; rate 0.0620 kg/ha) | TRZAWR herbicidal rating ([24]; rate 0.0620 kg/ha)
9.0: herbicidal rating, CYPIR ([1]; rate 0.0320 kg/ha) | herbicidal rating, CYPIR ([1]; rate 0.1250 kg/ha) | Preemergence herbicidal rating IPOHE ([2]; Rate 0.0620 kg/ha) | Preemergence herbicidal rating ABUTH ([3]; Rate 0.0620 kg/ha) | Preemergence herbicidal rating ECHCG ([4]; Rate 0.0620 kg/ha) | Preemergence herbicidal rating SETVI ([5]; Rate 0.0620 kg/ha) | herbicidal rating, ECHORC ([6]; rate 0.0080 kg/ha) | herbicidal rating, ECHORC ([6]; rate 0.0320 kg/ha) | herbicidal rating, ECHORC ([6]; rate 0.1250 kg/ha) | IPOHE herbicidal rating ([7]; rate 0.0320 kg/ha) | IPOHE herbicidal rating ([7]; rate 0.0620 kg/ha) | Preemergence herbicidal rating GALAP ([8]; Rate 0.0620 kg/ha) | Preemergence herbicidal rating AMBEL ([10]; Rate 0.0620 kg/ha) | Preemergence herbicidal rating CASOB ([11]; Rate 0.0620 kg/ha) | Preemergence herbicidal rating CHEAL ([12]; Rate 0.0620 kg/ha) | herbicidal rating, MOOVA ([15]; rate 0.0320 kg/ha) | herbicidal rating, MOOVA ([15]; rate 0.1250 kg/ha) | herbicidal rating, ORYSAT (rice tolerance) ([17]; rate 0.0320 kg/ha) | herbicidal rating, ORYSAT (rice tolerance) ([17]; rate 0.1250 kg/ha) | GLXMAW herbicidal rating ([18]; rate 0.0620 kg/ha) | SETVI herbicidal rating ([19]; rate 0.0620 kg/ha) | Preemergence herbicidal rating GLXMAW ([20]; Rate 0.0620 kg/ha) | herbicidal rating, SAGPY ([22]; rate 0.1250 kg/ha) | GALAP herbicidal rating ([25]; rate 0.0320 kg/ha) | GALAP herbicidal rating ([25]; rate 0.0620 kg/ha) | AMBEL herbicidal rating ([26]; rate 0.0320 kg/ha) | AMBEL herbicidal rating ([26]; rate 0.0620 kg/ha) | CASOB herbicidal rating ([27]; rate 0.0320 kg/ha) | CASOB herbicidal rating ([27]; rate 0.0620 kg/ha) | CHEAL herbicidal rating ([28]; rate 0.0320 kg/ha) | CHEAL herbicidal rating ([28]; rate 0.0620 kg/ha) | ABUTH herbicidal rating ([29]; rate 0.0320 kg/ha) | ABUTH herbicidal rating ([29]; rate 0.0620 kg/ha)
4.0: herbicidal rating, CYPIR ([1]; rate 0.0080 kg/ha)
6.5: GLXMAW herbicidal rating ([18]; rate 0.0320 kg/ha)
3.0: herbicidal rating, MOOVA ([15]; rate 0.0080 kg/ha) | herbicidal rating, SAGPY ([22]; rate 0.0080 kg/ha)
8.0: Preemergence herbicidal rating ORYSAT ([14]; Rate 0.0620 kg/ha) | Preemergence herbicidal rating ZEAMX ([21]; Rate 0.0620 kg/ha)
5.5: ZEAMX herbicidal rating ([13]; rate 0.0320 kg/ha)
7.0: Preemergence herbicidal rating TRZAWR ([9]; Rate 0.0620 kg/ha) | ECHCG herbicidal rating ([16]; rate 0.0620 kg/ha) | herbicidal rating, ORYSAT (rice tolerance) ([17]; rate 0.0080 kg/ha) | SETVI herbicidal rating ([19]; rate 0.0320 kg/ha) | herbicidal rating, SAGPY ([22]; rate 0.0320 kg/ha)

Cn1c(C(F)(F)F)cc(=O)n(-c2ccc3snc(C4OCC(CBr)O4)c3c2)c1=O (centres unmarked) [Compound 79, 3-[3-[4-(bromomethyl)-1,3-dioxolan-2-yl]-1,2-benzisothiazol-5-yl]-1-methyl-6-(trifluoromethyl)uracil]
6.0: GLXMAW herbicidal rating ([18]; rate 0.0620 kg/ha) | SETVI herbicidal rating ([19]; rate 0.0620 kg/ha) | CASOB herbicidal rating ([27]; rate 0.0620 kg/ha)
7.0: Preemergence herbicidal rating IPOHE ([2]; Rate 0.2500 kg/ha) | herbicidal rating, ORYSAT (rice tolerance) ([17]; rate 0.1250 kg/ha) | Preemergence herbicidal rating ZEAMX ([21]; Rate 0.2500 kg/ha)
9.0: herbicidal rating, CYPIR ([1]; rate 0.1250 kg/ha) | Preemergence herbicidal rating ABUTH ([3]; Rate 0.2500 kg/ha) | Preemergence herbicidal rating ECHCG ([4]; Rate 0.2500 kg/ha) | Preemergence herbicidal rating SETVI ([5]; Rate 0.2500 kg/ha) | herbicidal rating, ECHORC ([6]; rate 0.1250 kg/ha) | Preemergence herbicidal rating GALAP ([8]; Rate 0.2500 kg/ha) | Preemergence herbicidal rating AMBEL ([10]; Rate 0.2500 kg/ha) | Preemergence herbicidal rating CASOB ([11]; Rate 0.2500 kg/ha) | Preemergence herbicidal rating CHEAL ([12]; Rate 0.2500 kg/ha) | herbicidal rating, MOOVA ([15]; rate 0.1250 kg/ha) | Preemergence herbicidal rating GLXMAW ([20]; Rate 0.2500 kg/ha) | AMBEL herbicidal rating ([26]; rate 0.0620 kg/ha) | CHEAL herbicidal rating ([28]; rate 0.0620 kg/ha) | ABUTH herbicidal rating ([29]; rate 0.0620 kg/ha)
4.0: ECHCG herbicidal rating ([16]; rate 0.0620 kg/ha) | GALAP herbicidal rating ([25]; rate 0.0620 kg/ha)
8.0: IPOHE herbicidal rating ([7]; rate 0.0620 kg/ha) | Preemergence herbicidal rating TRZAWR ([9]; Rate 0.2500 kg/ha) | Preemergence herbicidal rating ORYSAT ([14]; Rate 0.2500 kg/ha)
2.5: TRZAWR herbicidal rating ([24]; rate 0.0620 kg/ha)
3.5: ZEAMX herbicidal rating ([13]; rate 0.0620 kg/ha) | ORYSAT herbicidal rating ([23]; rate 0.0620 kg/ha)
3.0: herbicidal rating, SAGPY ([22]; rate 0.1250 kg/ha)
